For experiment [1], the system named is Staphylococcus aureus. In words: Antibacterial activity against Staphylococcus aureus UC76 by NCCLS method. Type of experiment: functional, organism-based. The settings on record: read-out: MIC.
Experiment [2] has as its system Streptococcus pneumoniae. In words: Antibacterial activity against Streptococcus pneumoniae SP-3 by NCCLS method. Type of experiment: functional.
Experiment [3] relates to Streptococcus pyogenes. The experiment is described as follows: Antibacterial activity against Streptococcus pyogenes SP1-1 by NCCLS method. The class given is functional.
The subject of experiment [4] is Streptococcus pneumoniae. In words: Antibacterial activity against fluoroquinolone resistant Streptococcus pneumoniae SP-3765 by NCCLS method. The class given is functional.
Experiment [5] deals with DNA gyrase subunit B (Streptococcus pneumoniae serotype 4 (strain ATCC BAA-334 / TIGR4), UniProt P0A4L9). The experiment is described as follows: Inhibition of Streptococcus pneumoniae SP-3 gyrB by enzyme coupled phosphate assay.
Chain of DNA gyrase subunit B (P0A4L9 whole entry): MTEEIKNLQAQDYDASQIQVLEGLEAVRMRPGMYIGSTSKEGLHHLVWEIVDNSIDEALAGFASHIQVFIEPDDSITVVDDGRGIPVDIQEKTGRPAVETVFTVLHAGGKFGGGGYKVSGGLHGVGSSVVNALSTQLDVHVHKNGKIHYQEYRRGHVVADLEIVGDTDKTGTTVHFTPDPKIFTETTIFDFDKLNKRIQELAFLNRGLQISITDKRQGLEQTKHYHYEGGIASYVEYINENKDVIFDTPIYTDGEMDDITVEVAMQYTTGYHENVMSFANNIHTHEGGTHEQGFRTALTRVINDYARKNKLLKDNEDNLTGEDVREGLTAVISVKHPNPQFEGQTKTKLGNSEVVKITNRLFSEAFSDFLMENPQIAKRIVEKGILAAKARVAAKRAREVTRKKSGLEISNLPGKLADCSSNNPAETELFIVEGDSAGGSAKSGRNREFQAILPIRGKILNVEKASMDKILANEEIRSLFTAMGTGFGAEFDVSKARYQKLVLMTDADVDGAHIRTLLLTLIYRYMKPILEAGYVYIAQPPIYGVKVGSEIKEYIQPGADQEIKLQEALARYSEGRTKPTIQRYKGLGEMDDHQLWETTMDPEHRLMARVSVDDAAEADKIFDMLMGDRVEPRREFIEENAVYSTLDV
Experiment [6] has as its system Staphylococcus aureus. The experiment is described as follows: Antibacterial activity against methicillin resistant Staphylococcus aureus SA-1417 by NCCLS method. The class given is functional.
In experiment [7] the target is T1, ParE (Streptococcus pneumoniae, UniProt Q7X1P7).
T1 sequence (Q7X1P7 whole entry): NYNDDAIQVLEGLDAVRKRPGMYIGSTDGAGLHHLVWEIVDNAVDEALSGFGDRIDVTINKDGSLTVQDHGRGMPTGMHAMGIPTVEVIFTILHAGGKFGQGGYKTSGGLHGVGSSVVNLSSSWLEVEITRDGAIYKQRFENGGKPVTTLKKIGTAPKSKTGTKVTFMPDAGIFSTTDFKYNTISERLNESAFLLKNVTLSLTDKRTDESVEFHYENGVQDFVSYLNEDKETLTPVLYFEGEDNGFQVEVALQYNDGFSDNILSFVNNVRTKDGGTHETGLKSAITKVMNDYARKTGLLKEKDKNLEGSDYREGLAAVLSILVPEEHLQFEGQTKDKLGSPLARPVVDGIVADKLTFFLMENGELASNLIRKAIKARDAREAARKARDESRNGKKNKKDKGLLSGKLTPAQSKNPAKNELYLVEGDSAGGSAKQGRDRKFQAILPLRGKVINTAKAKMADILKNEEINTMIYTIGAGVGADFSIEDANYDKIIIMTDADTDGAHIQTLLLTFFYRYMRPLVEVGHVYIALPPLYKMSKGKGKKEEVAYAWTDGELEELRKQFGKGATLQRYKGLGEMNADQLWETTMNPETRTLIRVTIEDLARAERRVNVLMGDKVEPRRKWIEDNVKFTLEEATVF
In words: Inhibition of Streptococcus pneumoniae SP-3 parE after 30 mins.

Values after ≈ are worked out from the molar mass of the structure shown.

For `CCNC(=O)Nc1cn2c(-c3ncc(C)cn3)cc(-c3ccn(C)c(=O)c3)cc2n1`, the MIC was 0.5 µg/mL (≈ 1.24 µM) in experiment [1], 0.06 µg/mL (≈ 0.149 µM) in experiment [2], 0.125 µg/mL (≈ 0.31 µM) in experiment [3] and 0.06 µg/mL (≈ 0.149 µM) in experiment [4].

On to `CCNC(=O)Nc1cn2c(-c3ncc(C(F)(F)F)cn3)cc(-c3cccnc3)cc2n1`, for which the IC50 in experiment [5] was 163 nM; in experiment [7], 367 nM. The minimal inhibitory concentration (MIC) came to 1 µg/mL (≈ 2.34 µM) in experiment [1]; 1 µg/mL (≈ 2.34 µM) in experiment [6]; 0.5 µg/mL (≈ 1.17 µM) in experiment [2]; 1 µg/mL (≈ 2.34 µM) in experiment [3]; 0.25 µg/mL (≈ 0.585 µM) in experiment [4].

As for `CCC(=O)Nc1cn2c(-c3ncc(C)cn3)cc(-c3cccnc3)cc2n1`, the IC50 came to 255 nM in experiment [5] and 5000 nM in experiment [7]. The MIC was 64 µg/mL (≈ 179 µM) in experiment [1]; above 64 µg/mL in experiment [6]; 16 µg/mL (≈ 44.6 µM) in experiment [2]; 16 µg/mL (≈ 44.6 µM) in experiment [3]; 16 µg/mL (≈ 44.6 µM) in experiment [4].

For `CCNC(=O)Nc1cn2c(-c3ncc(C)cn3)cc(-c3ccc(OC)nc3)cc2n1`, the IC50 in experiment [5] worked out at 117 nM; in experiment [7], 147 nM. Besides, the MIC amounted to 0.5 µg/mL (≈ 1.24 µM) in experiment [1]; 2 µg/mL (≈ 4.96 µM) in experiment [6]; 0.25 µg/mL (≈ 0.62 µM) in experiment [2]; 0.5 µg/mL (≈ 1.24 µM) in experiment [3]; 0.125 µg/mL (≈ 0.31 µM) in experiment [4].

For `CCNC(=O)Nc1cn2c(-c3nccc(C4CC4)n3)cc(-c3cccnc3)cc2n1`, the half-inhibitory concentration (IC50) in experiment [5] amounted to 330 nM; in experiment [7] it was 3750 nM. In addition, the MIC in experiment [1] was 0.5 µg/mL (≈ 1.25 µM); in experiment [6], 0.5 µg/mL (≈ 1.25 µM); in experiment [2], 0.125 µg/mL (≈ 0.313 µM); in experiment [3], 1 µg/mL (≈ 2.5 µM); in experiment [4], 0.25 µg/mL (≈ 0.626 µM).

On to `CCNC(=O)Nc1cn2c(-c3ncc(C)cn3)cc(-c3cnc(N4CCCC4)nc3)cc2n1`, for which the IC50 came to 244 nM in experiment [5] and 366 nM in experiment [7]. For the same compound, the MIC in experiment [1] stood at 0.5 µg/mL (≈ 1.13 µM); in experiment [2], 0.125 µg/mL (≈ 0.282 µM); in experiment [3] it was 0.25 µg/mL (≈ 0.564 µM); in experiment [4], 0.06 µg/mL (≈ 0.135 µM).

In the case of `CCNC(=O)Nc1cn2c(-c3ncc(Cl)cn3)cc(-c3cccnc3)cc2n1`, the IC50 came to 149 nM in experiment [5] and 419 nM in experiment [7]. The MIC is 0.25 µg/mL (≈ 0.635 µM) in experiment [1]; 0.25 µg/mL (≈ 0.635 µM) in experiment [6]; 0.06 µg/mL (≈ 0.152 µM) in experiment [2]; 0.125 µg/mL (≈ 0.317 µM) in experiment [3]; 0.03 µg/mL (≈ 0.0762 µM) in experiment [4].

For `CCNC(=O)Nc1cn2c(-c3ncccn3)cc(-c3ccc(C)nc3)cc2n1`, the figures for the IC50 in experiment [5] and in experiment [7] were 44 nM and 119 nM, respectively. The MIC was 0.25 µg/mL (≈ 0.669 µM) in experiment [1], 0.06 µg/mL (≈ 0.161 µM) in experiment [2], 0.25 µg/mL (≈ 0.669 µM) in experiment [3] and 0.06 µg/mL (≈ 0.161 µM) in experiment [4].

`CCNC(=O)Nc1cn2c(-c3ncc(C)cn3)cc(-c3ccc(C)nc3)cc2n1`: the IC50 in experiment [5] amounted to 96 nM; in experiment [7], 373 nM. Also, the MIC in experiment [1] turned out to be 0.5 µg/mL (≈ 1.29 µM); in experiment [6] it was 1 µg/mL (≈ 2.58 µM); in experiment [2], 0.5 µg/mL (≈ 1.29 µM); in experiment [3], 0.25 µg/mL (≈ 0.645 µM); in experiment [4], 0.25 µg/mL (≈ 0.645 µM).

For the compound `CCNC(=O)Nc1cn2c(-c3ncc(S(C)(=O)=O)cn3)cc(-c3cccnc3)cc2n1`, the IC50 in experiment [5] is 433 nM; in experiment [7] it was 1830 nM. The MIC in experiment [1] came to 64 µg/mL (≈ 146 µM); in experiment [2], 8 µg/mL (≈ 18.3 µM); in experiment [3], 64 µg/mL (≈ 146 µM); in experiment [4] it was 16 µg/mL (≈ 36.6 µM).

For `Cc1cnc(-c2cc(-c3cccnc3)cc3nc(NC(=O)NC4CC4)cn23)nc1`, the IC50 worked out at 295 nM in experiment [5] and 571 nM in experiment [7]. Moreover, the MIC in experiment [1] was 64 µg/mL (≈ 166 µM); in experiment [6], above 64 µg/mL; in experiment [2], 1 µg/mL (≈ 2.59 µM); in experiment [3] it was 16 µg/mL (≈ 41.5 µM); in experiment [4], 0.25 µg/mL (≈ 0.649 µM).

With `CCNC(=O)Nc1cn2c(-c3ncc(C(C)C)cn3)cc(-c3cccnc3)cc2n1`, the IC50 in experiment [5] was found to be 1910 nM; in experiment [7], 1380 nM. Besides, the MIC worked out at 1 µg/mL (≈ 2.49 µM) in experiment [1], 0.25 µg/mL (≈ 0.623 µM) in experiment [2], 0.5 µg/mL (≈ 1.25 µM) in experiment [3] and 0.25 µg/mL (≈ 0.623 µM) in experiment [4].

For `CCNC(=O)Nc1cn2c(-c3ncc(C)cn3)cc(-c3cnc(N(C)C)nc3)cc2n1`, the results for the IC50 in experiment [5] and in experiment [7] were 524 nM and 1380 nM, respectively. The MIC was determined as 1 µg/mL (≈ 2.4 µM) in experiment [1]; 4 µg/mL (≈ 9.58 µM) in experiment [6]; 0.25 µg/mL (≈ 0.599 µM) in experiment [2]; 0.5 µg/mL (≈ 1.2 µM) in experiment [3]; 0.125 µg/mL (≈ 0.299 µM) in experiment [4].

Source of the values: ChEMBL document CHEMBL1155993, “5-(2-Pyrimidinyl)-imidazo[1,2-a]pyridines are antibacterial agents targeting the ATPase domains of DNA gyrase and topoisomerase IV” (Bioorg Med Chem Lett, 2009).
